Reference: patent publication US12053441B2, “Formulations for improving the delivery of hydrophobic agents” (THE ROYAL INSTITUTION FOR THE ADVANCEMENT OF LEARNING / …, priority 2018, dated 2024)

Columns and labels:
[1] = tested on: Pdss2/Mclk1 DKO cells; test: Oxygen consumption rate (OCR) by Seahorse XF analyzer; type: cell-based, mouse; settings: UQ10 at sufficient doses; Mclk1 SKO and Pdss2/Mclk1 DKO cells
Protocol: Measurement of oxygen consumption by Seaborse XF analyzer. Cells were seeded in XF v7 24-well plates (Seahorse Bioscience) at ˜40,000 cells/well for 24 hr. Prior to the measurements, cell medium was replaced with Seahorse XF base medium supplemented with 5.5 mM glucose (Sigma Cat No G8769), 2 mM Glutamax (Thermo Fisher Cat No 35050061) and 1 mM sodium pyruvate and allowed to equilibrate for 1 hour at 37° C. Oxygen consumption was measured first under baseline condition, followed by subsequent addition of 1 μg/ml oligomycin (Sigma Cat No 04876), 0.8 μM FCCP (Sigma Cat No C2920) and a combination of 1 μM rotenone (Sigma Cat No R8875) and 5 μM antimycin A (Sigma Cat No A8674) to assess the basal and maximal mitochondrial respiration rates. Four baseline measurements were recorded before the consecutive addition of the above-mentioned compounds, and three response measurements were taken after the addition of each compound. Results were finally normalized to protein content determined using the Bradford reagent (Bio-Rad). For experiments that involved culturing cells in the presence of lipoprotein-deficient serum (LPDS), cells were grown in culture medium supplemented with LPDS (Sigma S5394) for 1 week before OCR was measured using a Seahorse XF-24 extracellular flux analyzer as described above.

[2] = tested on: Mclk1 KO cells; test: Viability in glucose-free galactose-containing medium (resazurin reduction assay); type: cell-based, mouse
Protocol: Tissue culture and viability assays. […] To score growth and viability in galactose, cells were first grown in high glucose DMEM medium to confluency and then switched to glucose-free DMEM media (Thermo Fisher Cat No 26400036) supplemented with 10 mM galactose (Sigma Cat No G5388), 1 mM sodium pyruvate (Thermo Fisher Cat No 11360070), 10% dialyzed FBS (Thermo Fisher Cat No 26400036) and 1% antibiotic-antimycotic solution. Cell viability was determined by resazurin (Sigma Cat No R7017) reduction assay or crystal violet staining following standard procedures.
The screen uses cells lacking UQ (e.g., Mclk1 KO cells) and consists of three key steps: • 1) Day 0: preparation of Mclk1 KO cells in 96-well plates in standard (glucose-containing) culture medium. • 2) Day 1: changing to glucose-free galactose-containing medium and adding compounds to be screened at a concentration of approximately 10 μM. • 3) Day 4 to 6: following 3 to 5 days of incubation with the compound to be screened, media were removed and cell viability was assayed by resazurin reduction assay.
(§1) The resazurin cell viability assay. Briefly, resazurin was added directly to plates at 1/10 the volume of glucose culture medium. Viable cells with active metabolism can reduce resazurin into resorufin which causes a colour change from blue to pink. After a 2 hr incubation, plates were read on a plate reader (Tecan) to record absorbance at 570 nm and 600 nm. The cell viability was scored as a percentage relative to the signal from untreated glucose-grown wells. Consequently, each screened compound may be described by its effect (no, partial or full rescue) on survival of the KO cells in galactose medium.

[3] = tested on: human Hela cells; test: Cellular UQ10 levels (quinone quantification by HPLC); type: cell-based; settings: 1 hour treatment, human cells (FIG. 15)
From the text: (A) UQ levels in wild-type MEFs after treatment with McC1-solubilized form of UQ10. (B) UQ levels in human Hela cells after treatment with McC1-solubilized form of UQ10. Results are shown as the levels of UQ9 (white bars, measured as ng/mg of protein) or UQ10 (black bars, measured as ng/mg of protein) in control conditions (+None), after treatment with a formulation containing McC1-solubilized form of UQ10, or in the presence of UQ10 only (+UQ10). For the 2 treatment conditions in A, the final UQ10 concentrations in the media were the same—2.5 μM. In B, the final UQ10 concentrations in the media were 8 μM for the two treatment conditions. Values are mean±SEM (n=2). ****p<0.0001 (one-way ANOVA).
(§2) Quantification of quinones. Quinone content was detected and quantified by HPLC as previously described. […] After centrifugation for 5 min at 8,000×g, the hexane layer was collected and evaporated in a vacuum centrifuge. The quinone residue was then dissolved in ethanol and stored at −20° C. until HPLC analysis. The HPLC analysis was performed on a reverse phase C18 column (25.0×0.46 cm, 5 μm, Highchrom) using UV detection at 275 nm (Beckman System Gold). The mobile phase was methanol/ethanol (70:30 v/v) and isocratic elution was used at a flow rate of 1.8 ml/min.

[4] = Protocol: Solubilization studies. In order to link the surfactant properties of McC1 and its stimulating impact on UQ10 uptake, the solubilization characteristics of McC1 on UQ10 have been determined. First, solubilization test was performed by overnight shaking of a mixture of UQ10 and McC1 in water.
Additional solubilization tests were performed using sonication. Excess amount of UQ10 was mixed with McC1 by sonication for 2 min in water.
Like caspofungin/McC1, surfactin is a cyclic lipopeptide. It is produced from various strains of Bacillus subtilis. Structurally it consists of a peptide chain formed by seven amino acids linked to a β-hydroxyl fatty acid via a lactone bond. It is known for its exceptional surfactant power. […] Then, solubilization test was performed by overnight shaking of a mixture of UQ10 and surfactin in water. The mixture were subjected to brief centrifugation to separate undissolved UQ10 before absorbance of the resultant clear supernatant at 275 nm was measured spectrophotometrically.
Several other surfactants were tested for their ability to solubilize UQ. Briefly, excess amount of UQ10 was mixed with water solution of the tested surfactants using sonication. The resultant suspensions were then filtered through a 0.45 μm syringe filter to remove undissolved UQ10.

[5] = tested on: wildtype MEFs; test: Cellular UQ10 levels (quinone quantification by HPLC); type: cell-based, mouse; settings: 1 hour treatment, mouse cells (FIG. 15)
Protocol: as §2

[6] = tested on: Pdss2/Mclk1 DKO cells; test: Viability in glucose-free galactose-containing medium (resazurin reduction assay); type: cell-based, mouse; settings: if provided at a sufficient amount
Protocol: Tissue culture and viability assays. […] Cell viability was determined by resazurin (Sigma Cat No R7017) reduction assay or crystal violet staining following standard procedures.
as §1
The screen also uses cells lacking UQ biosynthesis (e.g., DKO cells) and its protocol is essentially the same as the galactose-only screen except that in step 2, a minimal amount of UQ10 is added into the galactose screening media at a concentration at which the added UQ10 is insufficient by itself to support survival.

[7] = Solubilization of curcumin in water; type: physicochemical
From the text: It is important to note that in contrast with the other surfactants tested, McC1 is non-toxic and can be used in intravenous injection.

| solubility of free curcumin in water [7] | SMILES | rates of mitochondrial respiration [1] | survival of Mclk1 KO cells in galactose medium ([2]; UQ10 0.5 μM (FIG. 3C)) | survival of Mclk1 KO cells in galactose medium ([2]; UQ10 10 μM (FIG. 3C)) | cellular UQ10 levels [3] | soluble UQ10 in the water-only control [4] | cellular UQ10 levels [5] | rescue from galactose-induced cell death by UQ supplementation [6] |
| --- | --- | --- | --- | --- | --- | --- | --- | --- |
| – | COC1=C(OC)C(=O)C(C/C=C(\C)CC/C=C(\C)CC/C=C(\C)CC/C=C(\C)CC/C=C(\C)CC/C=C(\C)CC/C=C(\C)CC/C=C(\C)CC/C=C(\C)CCC=C(C)C)=C(C)C1=O [UQ10, ubiquinone-10] | increases rates of mitochondrial respiration | little effect | almost full rescue | no effect on intracellular UQ10 levels | no detectable soluble UQ10 | no effect on intracellular UQ10 levels | sufficient to rescue them from galactose-induced cell death |
| very low solubility in water | COc1cc(/C=C/C(=O)CC(=O)/C=C/c2ccc(O)c(OC)c2)ccc1O [curcumin] | – | – | – | – | – | – | – |
